For assay [1], the target named is T1, A2 receptor (Rattus norvegicus, UniProt P30543).
T1 construct: corpus striatun (A2 receptor); from tissue; host or cells: rat corpus striatum membranes
Put plainly: A2 receptor antagonism (inhibition of 3H-NECA binding, rat corpus striatum membranes). The following applies: in presence of 50 nM cyclopentyladenosine, read-out: A2 receptor (Ki, μM), binding-inhibition constant. How it is done:
(§1) Preparation of membranes was performed in accordance with the method of Burns et al. described in Proc. Natl. Acad. Sci., 77, 5547 (1980). More specifically, a rat was decapitated, and the cerebral cortex (A1 receptor) or corpus striatun (A2 receptor) was suspended using Polyton in a Tris-HCl buffer solution of pH 7.7 (50 mM, 20 ml). This suspension was centrifuged at 48,000 g for 10 minutes, and the pellet was resuspended and centrifuged in a similar manner. The pellet was resuspended in a Tris-HCl buffer solution (50 mM), to which was added adenosine deaminase (2U/ml). The mixture was incubated at 37° C. for 30 minutes. This suspension was centrifuged and the pellet was stored at -20° C.
(§2) Using the above-mentioned pellet, adenosine antagonism (A1 and A2) was examined.
The experiment was performed analogously to that for A1 receptor antagonism. Using ^3 H-adenosine-5'-ethylcarboxamide (^3 H-NECA; about 0.1 μCi) as ligand, the experiment was conducted in the presence of 50 nM of cyclopentyladenosine. The nonspecific binding amount was measured in the presence of 10^-4 M of cyclopentyladenosine.

Assay [2] has as its target T2, A1 receptor (Rattus norvegicus, UniProt P25099).
T2 construct: a rat was decapitated, and the cerebral cortex (A1 receptor); from tissue; host or cells: rat cerebral cortex membranes
T2 sequence (P25099 1-326): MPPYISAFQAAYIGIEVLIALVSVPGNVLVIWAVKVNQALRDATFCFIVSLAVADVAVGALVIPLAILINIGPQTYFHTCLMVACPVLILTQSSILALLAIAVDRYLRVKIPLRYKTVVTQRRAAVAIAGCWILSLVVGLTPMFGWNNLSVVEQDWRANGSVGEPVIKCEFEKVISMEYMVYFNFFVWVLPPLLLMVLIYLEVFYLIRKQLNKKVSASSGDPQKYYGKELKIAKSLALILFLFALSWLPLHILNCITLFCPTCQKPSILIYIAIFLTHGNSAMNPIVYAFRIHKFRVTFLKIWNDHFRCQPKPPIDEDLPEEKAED
Put plainly: A1 receptor antagonism (inhibition of 3H-cyclohexyladenosine binding, rat cerebral cortex membranes). How it is done:
as §1, §2
The above-mentioned pellet was thawed at room temperature and suspended in a Tris-HCl buffer solution. To the suspension (0.9 ml) were added ^3 H-cyclohexyladenosine (^3 H-CHA)(ca. 0.05 μCi, 0.1 ml) and the test drug (10 μl), and the mixture was incubated at 25° C. for 60 minutes. The reaction mixture was subjected to filtration with GF/B filter. The filter was washed four times with a Tris-HCl buffer solution. The radioactivity on the filter was measured by liquid scintillation. The nonspecific binding amount was measured in the presence of 10^-5 M of L-phenyl isopropyladenosine.

Assay [3] relates to Retention deficit induced by scopolamine. Kind of assay: Passive avoidance task, retention deficit induced by scopolamine. It counts as in vivo, mice. The following applies: scopolamine 1 mg/kg i.p.; for recovery of memory: orally administered 5% gum arabic suspension, in words; for Avoidance Time (%): p.o., 3 mg/kg, percent change rate relative to control (100), P < 0.05. The text has this:
Actions of the compound (8) obtained in Working Example 8 and the compound (9) obtained in Working Example 9 on amelioration of memory impairment was studied using the passive avoidance task shown below. Five-week old male mice were placed first in the light chamber of a passive avoidance learning apparatus consisting of light and dark chambers. The mice immediately moved into the dark chamber, then an unescapable electric shock (0.5 mA, 3 sec.) was applied to the animals. These animals retained for several weeks the memory that they received the electric shock. This memory retention was disrupted by the following procedure, and the effect of the compounds (8) and (9) was tested. Thirty minutes prior to the application of electric shock, these animals were each administered with scopolamine (1 mg/kg, i.p), then these mice lost the memory of this experience of an electric shock.
On the following day, a retention recovery test was conducted. These mice were again placed in the light chamber of the passive avoidance apparatus and the time until the animals moved into the dark chamber (avoidance time) was measured. These mice which lost the memory of the experience of an electric shock moved again into the dark chamber in 10 to 20 seconds. […] The effects of these test compounds were examined by comparing the average value (11-15 animals/group) of the period of time during which the mice stayed in the light chamber with that of the control group (administered only a suspension of 5% gum arabic containing no test compound). The results were expressed by the percent change rate relative to the mean value (100) in the control group (Table 5).

For assay [4], the system named is motility depression (depression of consciousness level) associated with cerebral ischemia. Put plainly: Recovery of motility after experimental cerebral ischemia. It counts as in vivo, Wistar rats. The following applies: for Time to reappearance of spontaneous motility: control 81.5 ± 13.3. The text has this:
Experimental cerebral ischemia was produced in accordance with the method of Pulsinelli et al. (Stroke 10, 267-272, 1979), using Wistar rats 8-week old. On the first day of the experiment, the rats were anesthetized with pentobarbital, and their occipital skin and muscle were incised along the median line, then their vertebral arteries were cauterized bilaterally, and their ventral necks were incised, the bilateral common carotid arteries were separated from the surrounding tissue, to which a thread was applied. On the next day, the common carotid arteries were drawn out by the use of this thread under anaesthetic conditions, and occluded with clips for 30 minutes. By this treatment, serious cerebral ischemia was induced. After 30 minutes' occlusion, the clip was removed to allow the cerebral circulation to resume. Time to recovery of righting reflex and time to reappearance of spontaneous motor activity were measured on individual test animals. The test compound was orally administered to the animals as a 5% suspension in gum arabic one hour before causing the cerebral ischemia and immediately after the resumption of cerebral circulation. The control group was orally administered with only a 5% gum arabic suspension.

Assay [5] concerns impaired learning after cerebral ischemia. Put plainly: Passive avoidance learning impaired after cerebral ischemia. It counts as in vivo, Wistar rats. How it is done:
As in the case of the above test (3-1), Wistar rats were used to produce an experimental model for cerebral ischemia. In this experiment, the time during which cerebral ischemia was caused in the animals was 5 minutes. By this treatment, a passive avoidance learning impairments was induced. The passive avoidance learning was tested in accordance with the method in Experiment 1. The test compound was suspended in a 5% gum arabic vehicle. Test animals were administered with this suspension three times, i.e. one hour prior to causing cerebral ischemia, two hours prior to a passive avoidance learning and two hours prior to the test. The control group was administered with only a 5% gum arabic suspension.

Setting [6] is: rat cerebral cortex, 3H-CHA, 25° C., 60 minutes, read-out: A1 receptor (Ki, μM), binding-inhibition constant.

Read-outs that look alike come from different tables or passages of the source.

What is called Ki is a dissociation constant, usually derived from enzyme kinetics or from competition with a known ligand.

T1 sequence (P30543 whole entry): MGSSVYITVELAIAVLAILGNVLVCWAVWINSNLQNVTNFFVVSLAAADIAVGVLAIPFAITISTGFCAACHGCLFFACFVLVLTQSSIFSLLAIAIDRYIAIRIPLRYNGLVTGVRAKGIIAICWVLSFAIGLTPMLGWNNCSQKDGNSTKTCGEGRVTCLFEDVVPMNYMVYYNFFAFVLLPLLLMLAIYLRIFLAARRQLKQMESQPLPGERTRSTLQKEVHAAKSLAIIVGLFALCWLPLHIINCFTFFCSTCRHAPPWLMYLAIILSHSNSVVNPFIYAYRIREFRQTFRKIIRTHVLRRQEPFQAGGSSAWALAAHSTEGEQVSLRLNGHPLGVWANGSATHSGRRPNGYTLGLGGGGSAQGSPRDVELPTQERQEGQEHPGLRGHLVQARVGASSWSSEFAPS

With `CCCCOc1ccc(-c2cn3nc4c(c(=O)n(CCC)c(=O)n4Cc4ccccc4)c3[nH]2)cc1` [compound 24], the Ki is greater than 0.5 µM in assay [1] and 0.053 µM in assay [2] (setting [6]).
The corresponding values for `CCCn1c(=O)c2c3n(nc2n(Cc2cccc(Cl)c2)c1=O)CCN3` [compound 3] are 4.2 µM and 0.19 µM.
For `CCCCn1c(=O)n(Cc2ccccc2)c(=O)c2c1nn1cc[nH]c21` [compound 12], in that order: 1.1 µM and 0.2 µM.
For `CCCn1c(=O)c2c(nn3cc(-c4ccccc4)[nH]c23)n(Cc2ccccc2)c1=O` [compound 15], in that order: 0.28 µM and 0.01 µM.
On to `CCCn1c(=O)c2c(nn3cc[nH]c23)n(CCCc2ccccc2)c1=O` [compound 14], for which the values for the Ki in assay [1] and in assay [2] (setting [6]) were 2.5 µM and 0.11 µM, respectively.
The corresponding values for `CCCn1c(=O)c2c3n(nc2n(Cc2ccc(Cl)cc2)c1=O)CCN3` [compound 2] are 2.9 µM and 0.14 µM.
Take `CCCCn1c(=O)n(Cc2ccccc2)c(=O)c2c3n(nc21)CCN3` [compound 5]: the Ki in assay [1] was 4.5 µM; in assay [2] (setting [6]), 0.67 µM.
The corresponding values for `CCCCc1cn2nc3c(c(=O)n(CCC)c(=O)n3Cc3ccccc3)c2[nH]1` [compound 17] are 0.35 µM and 0.0051 µM.
The corresponding values for `CCCn1c(=O)c2c(nn3cc(-c4ccc(C)cc4)[nH]c23)n(Cc2ccccc2)c1=O` [compound 25] are greater than 0.5 µM and 0.58 µM.
In the case of `CCCn1c(=O)c2c(nn3cc[nH]c23)n(CCc2ccccc2)c1=O` [compound 13], the figures for the Ki in assay [1] and in assay [2] (setting [6]) were 16 µM and 0.53 µM, respectively.
The corresponding values for `CCCn1c(=O)c2c3n(nc2n(Cc2ccccc2Cl)c1=O)CCN3` [compound 4] are 6.5 µM and 0.27 µM.
For `CCCn1c(=O)c2c(nn3c(C)c(C)[nH]c23)n(Cc2ccccc2)c1=O` [compound 16], in that order: 0.43 µM and 0.024 µM.
`CCCn1c(=O)c2c(nn3cc(-c4ccccc4OC)[nH]c23)n(Cc2ccccc2)c1=O` [compound 23]: the inhibitory constant (Ki) was determined as 0.5 µM in assay [1] and 0.53 µM in assay [2] (setting [6]).
For `CCCn1c(=O)c2c(nn3cc[nH]c23)n(Cc2ccccc2Cl)c1=O` [compound 11], in that order: 1 µM and 0.092 µM.
Consider `CCCn1c(=O)[nH]c2nn3cc[nH]c3c2c1=O` [compound 30], for which the Ki in assay [1] and in assay [2] was 0.42 µM each time.
In the case of `CCCn1c(=O)c2c3n(nc2n(Cc2ccccc2)c1=O)CCN3` [compound 1], the Ki in assay [1] came out at 3.3 µM; in assay [2] (setting [6]) it was 0.12 µM.
As for `CCCn1c(=O)c2c(nn3cc[nH]c23)n(Cc2ccc(Cl)cc2)c1=O` [Working Example 9], in assay [3], the recovery of memory entry is “recovered the memory”.
Consider `CCCn1c(=O)c2c(nn3cc(-c4ccccc4Cl)[nH]c23)n(Cc2ccccc2)c1=O` [compound 27], for which the Ki was greater than 0.5 µM in assay [1] and 0.58 µM in assay [2] (setting [6]).
For `CCCCn1c(=O)[nH]c(=O)c2c3n(nc21)CCN3` [compound 29], in that order: 39 µM and 18 µM.
For `CCCn1c(=O)c2c(nn3cc[nH]c23)n(Cc2ccccc2)c1=O` [compound 8], the Ki came to 0.26 µM in assay [1] and 0.034 µM in assay [2] (setting [6]). For the same compound, the “Avoidance Time (%)” value in assay [3] was 243%.
With `CCCn1c(=O)c2c(nn3cc[nH]c23)n(Cc2cccc(Cl)c2)c1=O` [compound 10], the Ki in assay [1] amounted to 0.46 µM; in assay [2] (setting [6]), 0.098 µM.
With `CCCn1c(=O)c2c(nn3cc[nH]c23)n(Cc2ccccc2)c1=O` [Working Example 8, 1-Benzyl-3-propyl-1,2,3,4-tetrahydro-5H-imidazo[2',1':5,1]pyrazolo[3,4-d]pyrimidine-2,4-dione], the recovery of memory result in assay [3] is “recovered the memory”. For the same compound, the “Time to recovery of righting reflex” value was 21.0 ± 3.2 min in assay [4] (3 mg/kg oral, 30 minutes occlusion, average ± standard error, control 29.8 ± 5.9); 16.7 ± 2.6 min in assay [4] (10 mg/kg oral, 30 minutes occlusion, average ± standard error, control 29.8 ± 5.9); “tended to shorten the time to recovery of righting reflex dosedependently” in assay [4] (in words). Moreover, the “Time to reappearance of spontaneous motility” value in assay [4] (3 mg/kg oral, 30 minutes occlusion, average ± standard error) is 55.2 ± 6.5 min; in assay [4] (10 mg/kg oral, 30 minutes occlusion, average ± standard error, P < 0.05), 43.8 ± 4.7 min. The “time to reappearance of spontaneous motor activity” value in assay [4] (in words) is reported as “shortened the time to reappearance of spontaneous motor activity”. In addition, the Avoidance time result in assay [5] (3 mg/kg and 10 mg/kg, in words) is “prolonged the avoidance time, in the doses of 3 mg/kg and 10 mg/kg, dose-dependently”; in assay [5] (3 mg/kg, 5 minutes ischemia, median, control 17.5), 152.8 s; in assay [5] (10 mg/kg, 5 minutes ischemia, median, control 17.5, P < 0.05), 285.9 s.
`CCCn1c(=O)c2c(nn3cc(-c4cccc(Cl)c4)[nH]c23)n(Cc2ccccc2)c1=O` [compound 26]: the Ki in assay [1] was greater than 0.5 µM; in assay [2] (setting [6]), 0.037 µM.
For `CCCn1c(=O)c2c(nn3cc(-c4cccc(OC)c4)[nH]c23)n(Cc2ccccc2)c1=O` [compound 21], in that order: 0.12 µM and 0.0069 µM.
For `CCCn1c(=O)c2c(nn3cc(-c4ccc(OC)cc4)[nH]c23)n(Cc2ccccc2)c1=O` [compound 22], in that order: 0.21 µM and 0.0047 µM.
In the case of `CCCn1c(=O)c2c(nn3cc[nH]c23)n(Cc2ccc(Cl)cc2)c1=O` [compound 9], the Ki in assay [1] stood at 0.37 µM; in assay [2] (setting [6]), 0.05 µM. The “Avoidance Time (%)” value in assay [3] was 262%.
In the case of `CCCn1c(=O)c2c(nn3c4c([nH]c23)CCCC4)n(Cc2ccccc2)c1=O` [compound 19], the Ki in assay [1] came out at 0.19 µM; in assay [2] (setting [6]) it was 0.027 µM.
